The conditions of data set [1]: cited from earlier work.
Data set [2] is described as follows: Plasma protein binding, equilibrium dialysis, rat plasma. It is filed as in vitro ADME. To be noted: 1 μM. On the technique in general: In equilibrium dialysis only unbound substance equilibrates across the membrane.
A further data set addresses T1, c-Met kinase (Homo sapiens, UniProt P08581).
T1 construct: purchased Invitrogen (Shanghai, China)
Description: c-Met kinase inhibition assay (TK-Sub-Biotin / cryptate detection). The class given is biochemical. To be noted: for IC50: means from three independent experiments.

A further data set addresses T2, Mer kinase (Homo sapiens, UniProt Q12866).
T2 construct: purchased Invitrogen (Shanghai, China)
T2 sequence (Q12866 21-999): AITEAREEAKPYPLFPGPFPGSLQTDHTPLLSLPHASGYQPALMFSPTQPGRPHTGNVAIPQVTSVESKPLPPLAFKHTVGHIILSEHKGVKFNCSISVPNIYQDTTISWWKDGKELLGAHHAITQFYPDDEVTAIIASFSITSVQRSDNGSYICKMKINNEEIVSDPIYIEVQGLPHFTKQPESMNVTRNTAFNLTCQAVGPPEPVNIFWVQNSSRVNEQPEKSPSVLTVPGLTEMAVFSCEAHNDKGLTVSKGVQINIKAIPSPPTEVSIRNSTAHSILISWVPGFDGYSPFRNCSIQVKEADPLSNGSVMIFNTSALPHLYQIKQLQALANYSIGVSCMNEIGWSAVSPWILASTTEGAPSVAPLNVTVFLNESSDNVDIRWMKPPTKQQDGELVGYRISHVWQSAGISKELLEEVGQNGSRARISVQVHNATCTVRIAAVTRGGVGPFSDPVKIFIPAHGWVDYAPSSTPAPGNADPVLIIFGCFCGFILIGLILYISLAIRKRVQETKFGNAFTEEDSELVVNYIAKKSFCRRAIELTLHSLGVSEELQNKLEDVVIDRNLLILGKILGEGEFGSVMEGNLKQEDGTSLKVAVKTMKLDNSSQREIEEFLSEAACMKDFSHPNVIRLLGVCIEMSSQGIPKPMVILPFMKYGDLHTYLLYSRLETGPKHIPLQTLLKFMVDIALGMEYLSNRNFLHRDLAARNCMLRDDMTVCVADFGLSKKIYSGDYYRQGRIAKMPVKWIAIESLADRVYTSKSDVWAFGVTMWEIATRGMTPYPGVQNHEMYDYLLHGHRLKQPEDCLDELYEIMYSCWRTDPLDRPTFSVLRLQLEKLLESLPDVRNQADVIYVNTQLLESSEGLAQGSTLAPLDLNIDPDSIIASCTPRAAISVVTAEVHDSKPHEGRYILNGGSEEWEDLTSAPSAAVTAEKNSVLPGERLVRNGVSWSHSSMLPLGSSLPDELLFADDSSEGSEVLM
Nature of the data set: Mer kinase inhibition assay (TK-Sub-Biotin / cryptate detection). It is filed as biochemical. Conditions: for IC50: means from three independent experiments.

A short description of data set [3]: Liver microsome stability assay. The class given is in vitro ADME, human. To be noted: human, liver microsomes, pH 7.4, human liver microsomes; for microsomal CLint: read-out: CL (intrinsic clearance). Background: Liver microsomes are a subcellular fraction often used to study metabolism.

Bounds are passed on as bounds.

Broadly, the IC50 is the concentration needed to halve the response being measured. For orientation: half-life means how long it takes for the measured level to halve. The low end stands for fast loss, the high end for slow loss.

T1 sequence (P08581 25-1390): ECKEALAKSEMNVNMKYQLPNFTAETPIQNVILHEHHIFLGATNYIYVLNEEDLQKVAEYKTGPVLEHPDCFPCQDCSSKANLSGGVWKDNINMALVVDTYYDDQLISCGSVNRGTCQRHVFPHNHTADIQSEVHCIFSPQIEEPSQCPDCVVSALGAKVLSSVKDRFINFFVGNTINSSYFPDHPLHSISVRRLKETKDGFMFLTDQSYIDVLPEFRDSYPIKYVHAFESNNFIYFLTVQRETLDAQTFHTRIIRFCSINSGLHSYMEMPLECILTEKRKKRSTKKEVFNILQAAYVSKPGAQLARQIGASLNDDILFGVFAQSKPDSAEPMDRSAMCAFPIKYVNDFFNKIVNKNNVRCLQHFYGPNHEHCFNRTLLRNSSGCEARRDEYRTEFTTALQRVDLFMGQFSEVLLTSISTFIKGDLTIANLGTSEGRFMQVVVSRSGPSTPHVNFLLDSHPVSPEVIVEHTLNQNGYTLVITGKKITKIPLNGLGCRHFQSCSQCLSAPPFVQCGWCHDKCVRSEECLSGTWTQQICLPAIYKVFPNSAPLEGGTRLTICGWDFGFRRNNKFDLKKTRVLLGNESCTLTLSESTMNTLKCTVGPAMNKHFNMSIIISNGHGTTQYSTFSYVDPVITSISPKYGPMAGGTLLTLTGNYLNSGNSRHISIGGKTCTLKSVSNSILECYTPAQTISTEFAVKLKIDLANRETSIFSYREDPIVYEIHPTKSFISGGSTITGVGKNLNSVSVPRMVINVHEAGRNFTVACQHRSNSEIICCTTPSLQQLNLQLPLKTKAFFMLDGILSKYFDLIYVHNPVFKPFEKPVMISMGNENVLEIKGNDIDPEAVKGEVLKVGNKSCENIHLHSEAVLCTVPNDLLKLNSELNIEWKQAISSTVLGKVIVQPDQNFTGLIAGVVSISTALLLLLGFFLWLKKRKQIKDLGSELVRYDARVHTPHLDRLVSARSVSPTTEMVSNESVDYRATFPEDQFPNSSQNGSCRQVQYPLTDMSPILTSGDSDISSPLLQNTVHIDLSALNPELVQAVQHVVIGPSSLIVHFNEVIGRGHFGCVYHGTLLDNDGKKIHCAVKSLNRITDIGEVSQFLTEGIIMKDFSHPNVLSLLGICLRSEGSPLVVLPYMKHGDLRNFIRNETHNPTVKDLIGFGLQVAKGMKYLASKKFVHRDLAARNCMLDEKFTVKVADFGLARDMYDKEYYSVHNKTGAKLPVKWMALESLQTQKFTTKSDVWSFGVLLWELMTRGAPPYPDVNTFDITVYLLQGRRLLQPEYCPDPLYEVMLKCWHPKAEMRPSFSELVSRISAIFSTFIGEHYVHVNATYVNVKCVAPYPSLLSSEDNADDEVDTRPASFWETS

As to `CN1CCN(Cc2ccc(-c3cn([C@H]4CC[C@H](O)CC4)c4nc(NCCC5CC5)ncc34)cc2)CC1` [MRX2843], the brain/plasma ration in data set [1] (CNS penetration) was 0.4.

With `CC(=O)CC(c1ccccc1)c1c(O)c2ccccc2oc1=O` (stereo not drawn) [Warfarin, reference compound], in data set [2], the “Mean Fb” value is 99.0%.

On to `CN1CCC(Oc2ccc(Nc3nccc(Oc4ccc(NC(=O)C5(C(=O)Nc6ccc(F)cc6)CC5)cc4)n3)cc2)CC1` [compound 13a, N-(4-fluorophenyl)-N-(4-((2-((4-((1-methylpiperidin-4-yl)oxy)phenyl)amino)pyrimidin-4-yl)oxy)phenyl)cyclopropane-1,1-dicarboxamide], for which the IC50 against c-Met kinase came to 63.3 ± 9.1 nM; at Mer kinase, 21.7 ± 5.8 nM.

As for `COCCNc1cccc(Nc2nccc(Oc3ccc(NC(=O)C4(C(=O)Nc5ccc(F)cc5)CC4)cc3)n2)c1` [compound 13b], in data set [3], the half-life is 38.3 min and the microsomal CLint was found to be 90.5 µL/min/mg. This molecule also showed an IC50 at c-Met kinase of 25.9 ± 7.7 nM. For the same molecule, the half-maximal inhibitory concentration (IC50) against Mer kinase turned out to be 24.3 ± 5.7 nM.

For `O=C(Nc1ccc(F)cc1)C1(C(=O)Nc2ccc(Oc3ccnc(Nc4cn[nH]c4)n3)cc2)CC1` [compound 13c, N-(4-((2-((1H-pyrazol-4-yl)amino)pyrimidin-4-yl)oxy)phenyl)-N-(4-fluorophenyl)cyclopropane-1,1-dicarboxamide], the IC50 against c-Met kinase was 48.9 ± 6.4 nM; at Mer kinase, 110 ± 15.7 nM.

In the case of `O=C(Nc1ccc(F)cc1)C1(C(=O)Nc2ccc(Oc3ccnc(Nc4cc(F)cc(F)c4)n3)cc2)CC1` [compound 13d, N-(4-((2-((3,5-difluorophenyl)amino)pyrimidin-4-yl)oxy)phenyl)-N-(4-fluorophenyl)cyclopropane-1,1-dicarboxamide], the IC50 was determined as 728 ± 131 nM on c-Met kinase and 640 ± 82.2 nM at Mer kinase.

With `CC(=O)N1CCN(c2cccc(Nc3nccc(Oc4ccc(NC(=O)C5(C(=O)Nc6ccc(F)cc6)CC5)cc4)n3)c2)CC1` [compound 13e], in data set [3], the half-life stood at 30.4 min and the microsomal CLint came to 114 µL/min/mg. Further, on c-Met kinase, the “fold improvement over 18c, c-Met IC50” value was 4.5 fold and the 50% inhibitory concentration (IC50) worked out at 7.5 ± 1.1 nM. Further, on Mer kinase, the “fold improvement over 18c, Mer IC50” value is listed as 2.5 fold and it took 7.5 ± 1.6 nM to reach half-maximal inhibition (IC50).

On to `O=C(NC1CCCNC1)c1cccc(Nc2nccc(Oc3ccc(NC(=O)C4(C(=O)Nc5ccc(F)cc5)CC4)cc3)n2)c1` (stereo not drawn) [compound 13f, N-(4-fluorophenyl)-N-(4-((2-((3-(piperidin-3-ylcarbamoyl)phenyl)amino)pyrimidin-4-yl)oxy)phenyl)cyclopropane-1,1-dicarboxamide], for which the IC50 on c-Met kinase and against Mer kinase was above 1000 nM each time.

With `O=C(NC1CCCNC1)c1ccc(Nc2nccc(Oc3ccc(NC(=O)C4(C(=O)Nc5ccc(F)cc5)CC4)cc3)n2)cc1` (stereo not drawn) [compound 13g, N-(4-fluorophenyl)-N-(4-((2-((4-(piperidin-3-ylcarbamoyl)phenyl)amino)pyrimidin-4-yl)oxy)phenyl)cyclopropane-1,1-dicarboxamide], the IC50 on c-Met kinase and on Mer kinase was above 1000 nM throughout.

With `CN1CCN(C(=O)c2ccc(Nc3nccc(Oc4ccc(NC(=O)C5(C(=O)Nc6ccc(F)cc6)CC5)cc4)n3)cc2)CC1` [compound 13h, N-(4-fluorophenyl)-N-(4-((2-((4-(4-methylpiperazine-1-carbonyl)phenyl)amino)pyrimidin-4-yl)oxy)phenyl)cyclopropane-1,1-dicarboxamide], the figures for the IC50 against c-Met kinase and against Mer kinase were 41.6 ± 8.5 nM and 72 ± 8.9 nM, respectively.

For the molecule `CCN(CC)CCNCC(=O)Nc1ccc(Nc2nccc(Oc3ccc(NC(=O)C4(C(=O)Nc5ccc(F)cc5)CC4)cc3)n2)cc1` [compound 13i, N-(4-((2-((4-(2-((2-(diethylamino)ethyl)amino)acetamido)phenyl)amino)pyrimidin-4-yl)oxy)phenyl)-N-(4-fluorophenyl)cyclopropane-1,1-dicarboxamide], the concentration for half-maximal inhibition (IC50) against c-Met kinase came out at 88.6 ± 13.9 nM; against Mer kinase, 95.3 ± 20.1 nM.

As to `CN(C)CCNCC(=O)Nc1ccc(Nc2nccc(Oc3ccc(NC(=O)C4(C(=O)Nc5ccc(F)cc5)CC4)cc3)n2)cc1` [compound 13j], in data set [3], the half-life is 27.9 min and the microsomal CLint is 152 µL/min/mg. Moreover, the IC50 against c-Met kinase amounted to 48.6 ± 11.2 nM. For the same molecule, half-maximal inhibition at Mer kinase (IC50) was put at 13.1 ± 2.1 nM.

`COCCN1CCN(CC(=O)Nc2ccc(Nc3nccc(Oc4ccc(NC(=O)C5(C(=O)Nc6ccc(F)cc6)CC5)cc4)n3)cc2)CC1` [compound 13k] gave a half-life in data set [3] of 38.4 min. The microsomal CLint in data set [3] was 124 µL/min/mg. Further, the IC50 at c-Met kinase is 35.4 ± 10 nM; against Mer kinase, 37.3 ± 10.6 nM.

On to `Cc1c(C(=O)Nc2ccc(Oc3ccnc(Nc4ccc(OC5CCN(C)CC5)cc4)n3)cc2)c(=O)n(-c2ccccc2)n1C` [compound 17a, 1,5-dimethyl-N-(4-((2-((4-((1-methylpiperidin-4-yl)oxy)phenyl)amino)pyrimidin-4-yl)oxy)phenyl)-3-oxo-2-phenyl-2,3-dihydro-1H-pyrazole-4-carboxamide], for which the IC50 at c-Met kinase amounted to 233 ± 25.4 nM; against Mer kinase, 26.2 ± 7.1 nM.

As to `COCCNc1cccc(Nc2nccc(Oc3ccc(NC(=O)c4c(C)n(C)n(-c5ccccc5)c4=O)cc3)n2)c1` [compound 17b, N-(4-((2-((3-((2-methoxyethyl)amino)phenyl)amino)pyrimidin-4-yl)oxy)phenyl)-1,5-dimethyl-3-oxo-2-phenyl-2,3-dihydro-1H-pyrazole-4-carboxamide], the results for the IC50 at c-Met kinase and on Mer kinase were 101 ± 18.5 nM and 12.1 ± 1.3 nM, respectively.

Turning to `Cc1c(C(=O)Nc2ccc(Oc3ccnc(Nc4ccc(C(=O)N5CCN(C)CC5)cc4)n3)cc2)c(=O)n(-c2ccccc2)n1C` [compound 17d, 1,5-dimethyl-N-(4-((2-((4-(4-methylpiperazine-1-carbonyl)phenyl)amino)pyrimidin-4-yl)oxy)phenyl)-3-oxo-2-phenyl-2,3-dihydro-1H-pyrazole-4-carboxamide], the IC50 on c-Met kinase came out at 137 ± 34.3 nM; against Mer kinase, 84.1 ± 13.9 nM.

As to `CC(=O)N1CCN(c2ccc(Nc3nccc(Oc4ccc(NC(=O)c5c(C)n(C)n(-c6ccccc6)c5=O)cc4)n3)cc2)CC1` [compound 17e, N-(4-((2-((4-(4-acetylpiperazin-1-yl)phenyl)amino)pyrimidin-4-yl)oxy)phenyl)-1,5-dimethyl-3-oxo-2-phenyl-2,3-dihydro-1H-pyrazole-4-carboxamide], the IC50 was 236 ± 25.6 nM at c-Met kinase and 69.8 ± 12.5 nM against Mer kinase.

In the case of `CC(=O)N1CCN(c2cccc(Nc3nccc(Oc4ccc(NC(=O)c5c(C)n(C)n(-c6ccccc6)c5=O)cc4)n3)c2)CC1` [compound 17f, N-(4-((2-((3-(4-acetylpiperazin-1-yl)phenyl)amino)pyrimidin-4-yl)oxy)phenyl)-1,5-dimethyl-3-oxo-2-phenyl-2,3-dihydro-1H-pyrazole-4-carboxamide], in data set [3], the half-life was 51 min. The microsomal CLint in data set [3] was determined as 68 µL/min/mg. Further, the figures for the IC50 at c-Met kinase and at Mer kinase were 25 ± 3.5 nM and 5.5 ± 0.8 nM, respectively.

Turning to `Cc1c(C(=O)Nc2ccc(Oc3ccnc(Nc4ccc(NC(=O)CN5CCN(C)CC5)nc4)n3)cc2)c(=O)n(-c2ccccc2)n1C` [compound 17g, 1,5-dimethyl-N-(4-((2-((6-(2-(4-methylpiperazin-1-yl)acetamido)pyridin-3-yl)amino)pyrimidin-4-yl)oxy)phenyl)-3-oxo-2-phenyl-2,3-dihydro-1H-pyrazole-4-carboxamide], the results for the half-inhibitory concentration (IC50) against c-Met kinase and at Mer kinase were 140 ± 18.9 nM and above 1000 nM, respectively.

Consider `Cc1c(C(=O)Nc2ccc(Oc3ccnc(Nc4ccc(NC(=O)C(C)N5CCN(C)CC5)cc4)n3)cc2)c(=O)n(-c2ccccc2)n1C` (stereo not drawn) [compound 17h, 1,5-dimethyl-N-(4-((2-((4-(2-(4-methylpiperazin-1-yl)propanamido)phenyl)amino)pyrimidin-4-yl)oxy)phenyl)-3-oxo-2-phenyl-2,3-dihydro-1H-pyrazole-4-carboxamide], for which the results for the IC50 at c-Met kinase and against Mer kinase were 45 ± 6.8 nM and 11.9 ± 1.7 nM, respectively.

Take `CN1CCN(CC(=O)Nc2ccc(Nc3nccc(Oc4ccc(NC(=O)C5(C(=O)Nc6ccc(F)cc6)CC5)cc4)n3)cc2)CC1` [compound 18c]: in data set [1] (previous study), the “oral bioavailability F” value is given as 2.84%.

The record behind these values is article PMC12385147, “Discovery of Novel 2-Substituted Aniline Pyrimidine Based Derivatives as Potent Mer/c-Met Dual Inhibitors with Improvement Bioavailability” (Biomolecules, 2025).
